Measured values reported in article PMC8795197, “Safety and activity of WX-0593 (Iruplinalkib) in patients with ALK- or ROS1-rearranged advanced non-small cell lung cancer: a phase 1 dose-escalation and dose-expansion trial” (Signal Transduction and Targeted Therapy, 2022).

What was measured:
[1] = Tissue distribution of total radioactivity after [14C]WX-0593; format: in vivo, SD rats
Experimental: At 0.5 h after drug administration, the total radioactivity was mainly distributed in the gastrointestinal tract, liver, oesophagus, and adrenal glands. […] The distribution of total radioactivity in other tissues in descending order was lungs, kidneys, spleen, pancreas, lymph nodes, heart, uterus and ovaries, plasma, thymus, prostate, whole blood, skeletal muscles, skin, testis and epididymis, and whole brain. […] Only the total radioactivity of skeletal muscles (1417 ng Eq./g), whole blood (1366 ng Eq./g), body fat (1079 ng Eq./g), testis and epididymis (619 ng Eq./g), and whole brain (114 ng Eq./g) were lower than that of plasma at the same time point. […] At the last sampling time point (72 h), most total radioactivity had been cleared from the body and only the spleen, adrenal glands, liver, testis and epididymis, kidneys, lymph nodes, uterus and ovaries, intestinal wall, lungs, and thymus had been traced small amount of radioactivity.

[2] = Excretion and mass balance after [14C]WX-0593, bile-duct cannulation (BDC); format: in vivo; conditions: 0-72 hours, BDC rats
[3] = Mutagenicity study
[4] = molecular target: hERG (Homo sapiens, UniProt Q12809); experiment: Inhibition of hERG currents; format: cell-based; conditions: human; maximum tested dose 30 μM
hERG, sequence (Q12809 whole entry): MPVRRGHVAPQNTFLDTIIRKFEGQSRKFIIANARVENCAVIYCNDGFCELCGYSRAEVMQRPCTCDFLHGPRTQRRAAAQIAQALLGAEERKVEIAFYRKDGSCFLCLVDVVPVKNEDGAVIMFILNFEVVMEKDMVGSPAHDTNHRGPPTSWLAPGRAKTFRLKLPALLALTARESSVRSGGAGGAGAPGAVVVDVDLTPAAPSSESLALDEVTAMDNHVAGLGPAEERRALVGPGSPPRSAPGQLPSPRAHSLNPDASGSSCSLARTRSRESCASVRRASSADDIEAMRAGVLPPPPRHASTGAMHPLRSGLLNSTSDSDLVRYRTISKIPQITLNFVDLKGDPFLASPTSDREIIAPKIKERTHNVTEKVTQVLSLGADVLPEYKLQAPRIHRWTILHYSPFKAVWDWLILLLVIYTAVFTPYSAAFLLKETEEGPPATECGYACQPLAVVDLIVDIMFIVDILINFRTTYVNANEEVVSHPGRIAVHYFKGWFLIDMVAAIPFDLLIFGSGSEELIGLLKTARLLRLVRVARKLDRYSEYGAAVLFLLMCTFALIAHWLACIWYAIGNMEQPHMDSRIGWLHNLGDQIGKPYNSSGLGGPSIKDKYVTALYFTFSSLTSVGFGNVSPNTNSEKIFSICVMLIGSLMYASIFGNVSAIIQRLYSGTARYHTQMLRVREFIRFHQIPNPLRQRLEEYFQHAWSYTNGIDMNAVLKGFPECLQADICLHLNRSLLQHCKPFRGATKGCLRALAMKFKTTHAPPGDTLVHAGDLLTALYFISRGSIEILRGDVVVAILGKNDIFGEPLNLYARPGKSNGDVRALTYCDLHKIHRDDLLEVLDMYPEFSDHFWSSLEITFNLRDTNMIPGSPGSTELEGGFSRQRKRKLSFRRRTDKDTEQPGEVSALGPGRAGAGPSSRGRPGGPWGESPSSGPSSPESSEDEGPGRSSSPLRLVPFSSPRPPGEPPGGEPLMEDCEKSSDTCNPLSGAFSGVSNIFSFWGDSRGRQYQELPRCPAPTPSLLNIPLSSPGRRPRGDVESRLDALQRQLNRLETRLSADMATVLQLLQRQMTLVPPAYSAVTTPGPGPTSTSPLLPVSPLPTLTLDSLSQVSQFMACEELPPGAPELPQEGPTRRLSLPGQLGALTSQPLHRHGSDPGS
Experimental: (§1) […]. Therefore, WX-0593 has a low risk of cardiotoxicity. There were no effects on the CNS and respiratory system in rats at doses of 3, 10, and 30 mg/kg. However, WX-0593 10 and 30 mg/kg may result in benign respiratory rate and decreases in minute ventilation in female rats. There were no effects on the cardiovascular system, blood pressure, ECG parameters or waveforms in monkeys at doses of 5, 10, and 25 mg/kg; 10 and 25 mg/kg may result in mild decreases in heart rate (within the normal range) and PR prolongation and QTc shortening associated with bradycardia within the normal range (no statistical difference when compared to the control arm). No cardiovascular system adverse reactions related to the test product were found. The human equivalent dose (using 60 kg) is 3636 mg/person in CNS, 3636 mg/person in male respiratory system and 363.6 mg/person in female respiratory system, and 607 mg/person in cardiovascular system.

[5] = molecular target: hERG currents (Homo sapiens, UniProt Q12809); experiment: Inhibition of hERG currents; format: cell-based
hERG currents, sequence (Q12809 whole entry): as above
Experimental: as §1

[6] = tested on: Ba/F3 SLC34A2-ROS1-G2032R; experiment: Growth of transfected Ba/F3 cells (CellTiter-Glo, 3 days); format: cell-based; conditions: Mus musculus, BaF3
Experimental: (§2) Harvest cells during the logarithmic growth period and count cells using blood counting chamber. Adjust cell concentration with culture medium. Add 90µl cell suspensions to two 96-well plates to the final cell density as described before. Incubate the plate overnight in humidified incubator at 37℃ with 5% CO2. Dispense 10µl drug solution (10×) to each well (triplicate for each concentration), and the DMSO final concentration in culture medium is 0.1% [v/v]. Culture the plates for 3 days.On Day 3, Read luminescent using Multi Label Reader. The software of GraphPad Prism was used to calculate IC50. The graphical curves were fitted using a nonlinear regression model with a sigmoidal dose response.

[7] = tested on: Ba/F3 CD74-ROS1-S1986F; experiment: as above; format: cell-based; conditions: Mus musculus, BaF3
Experimental: as §2

[8] = tested on: Ba/F3 CD74-ROS1-S1986Y; experiment: as above; format: cell-based; conditions: Mus musculus, BaF3
Experimental: as §2

[9] = tested on: Ba/F3 SLC34A2-ROS1; experiment: as above; format: cell-based; conditions: Mus musculus, BaF3
Experimental: as §2

[10] = tested on: Ba/F3 SLC34A2-ROS1-L2026M; experiment: as above; format: cell-based; conditions: Mus musculus, BaF3
Experimental: as §2

[11] = tested on: Ba/F3 CD74-ROS1-L1951R; experiment: as above; format: cell-based; conditions: Mus musculus, BaF3
Experimental: as §2

[12] = tested on: Ba/F3 CD74-ROS1-D2033N; experiment: as above; format: cell-based; conditions: Mus musculus, BaF3
Experimental: as §2

[13] = Metabolite identification in plasma; format: in vivo, cynomolgus monkey; conditions: oral WX-0593
Text: Under current experimental conditions, 1 metabolite in addition to the parent drug was detected in monkey plasma: a demethylation metabolite, M2 (MW = 554.23, P - CH2). Based on the % peak area from mass spectrometry, the drug exists primarily as the parent drug in the plasma of both male and female monkeys (99.06% in females and 99.47% in males). Metabolite M2 (0.94% in females and 0.53% in males) was a secondary metabolite. Based on the types of metabolites, it is speculated that WX-0593 is mainly metabolized through demethylation after oral administration in monkeys. There was no significant difference in metabolites between female and male monkeys.

[14] = tested on: LU-01-0319R NSCLC PDX; experiment: PDX model resistant to crizotinib; format: in vivo
[15] = 0.5 h, oral [14C]WX-0593 8 mg/kg

For COc1cc(N2CCC3(CCN(C)CC3)CC2)ccc1Nc1ncc(Cl)c(Nc2ccccc2P(C)(C)=O)n1 [WX-0593], the “total radioactivity relative to plasma, adrenal glands” value ([1]; 0.5 h) was 8.76 times, the “total radioactivity relative to plasma, intestinal wall” value ([1]; 0.5 h) was 28.1 times and the “total radioactivity relative to plasma, liver” value ([1]; 0.5 h) was 9.96 times. For the same compound, the “total radioactivity relative to plasma, oesophagus” value ([1]; 0.5 h) was 9.07 times, the “total radioactivity relative to plasma, stomach wall” value ([1]; 0.5 h) was 18.6 times and the “mean total radioactivity, adrenal glands” value [1, 15] was 13334 ng Eq./g. The “mean total radioactivity, intestinal wall” value [1, 15] was 42737 ng Eq./g, the “mean total radioactivity, liver” value [1, 15] was 15160 ng Eq./g and the “mean total radioactivity, oesophagus” value [1, 15] was 13803 ng Eq./g. For the same compound, the “mean total radioactivity, plasma” value [1, 15] was 1522 ng Eq./g, the “mean total radioactivity, stomach wall” value [1, 15] was 28265 ng Eq./g and the “total radioactivity, body fat” value ([1]; 3 h) was 1079 ng Eq./g. For the same compound, the “total radioactivity, plasma” value ([1]; 3 h) was 2062 ng Eq./g, the “total radioactivity, skeletal muscles” value ([1]; 3 h) was 1417 ng Eq./g and the “total radioactivity, testis and epididymis” value ([1]; 3 h) was 619 ng Eq./g. For the same compound, the “total radioactivity, whole blood” value ([1]; 3 h) was 1366 ng Eq./g, the “total radioactivity, whole brain” value ([1]; 3 h) was 114 ng Eq./g and the “mean total radioactivity, adrenal glands” value ([1]; 72 h) was 1296 ng Eq./g. For the same compound, the “mean total radioactivity, intestinal wall” value ([1]; 72 h) was 129 ng Eq./g, the “mean total radioactivity, kidneys” value ([1]; 72 h) was 438 ng Eq./g and the “mean total radioactivity, liver” value ([1]; 72 h) was 922 ng Eq./g. The “mean total radioactivity, lungs” value ([1]; 72 h) was 103 ng Eq./g, the “mean total radioactivity, lymph nodes” value ([1]; 72 h) was 292 ng Eq./g and the “mean total radioactivity, spleen” value ([1]; 72 h) was 1883 ng Eq./g. The “mean total radioactivity, testis and epididymis” value ([1]; 72 h) was 504 ng Eq./g, the “mean total radioactivity, thymus” value ([1]; 72 h) was 95.8 ng Eq./g and the “mean total radioactivity, uterus and ovaries” value ([1]; 72 h) was 187 ng Eq./g. The “dose excreted in bile” value [2] was 30.56%, the “dose excreted in feces” value [2] was 32.04% and the “dose excreted in urine” value [2] was 30.73%. For the same compound, the “dose in cage rinses and washes” value [2] was 1.43%, the “mean radioactivity recovery rate” value [2] was 94.75% and the mutagenic activity [3] was “no mutagenic activity”. It also gave an inhibition at 30 μM [4] of 58.1%, an IC50 [5] of 20000 nM and a hERG slope [5] of 0.95. It also gave an IC50 [6] of 584 nM, an IC50 [7] of 22.4 nM and an IC50 [8] of 15.9 nM. The IC50 [9] was 11 nM, the IC50 [10] was 12 nM and the IC50 [11] was 626 nM. The IC50 [12] was 33.8 nM, the “% peak area from mass spectrometry in plasma” value ([13]; female monkeys) was 99.06% and the “% peak area from mass spectrometry in plasma” value ([13]; male monkeys) was 99.47%. The anti-tumor effect ([14]; WX-0593 2.5, 5, 10 mg/kg, ceritinib 10/20 mg/kg, brigatinib 10 mg/kg) was “significant anti-tumor effects” and the body weight ([14]; all treatment arms) was “no significant decrease in weight”.
